Assay: stability to temperature and humidity changes (storage/handling)
Type: physicochemical
Conditions: solid; storage without desiccant agent or without being sealed

Substance: aminoadamantane carbamate hydrochloride dihydrate [III-2]
- stability to temperature and humidity changes: stable to temperature and humidity changes

— US8901316B2, “Process for preparing aminoadamantyl carbamate derivatives” (Shionogi & Co., Ltd., priority 2010, dated 2014)
